SMILES	melting point [°C]
CSC(=N)N(C#N)C(c1ccccn1)c1ccccc1C (centres undefined)	162 to 164
Clc1ccc(C(Cl)Cl)cn1	60
Nc1nc2ccccc2c2c1ncn2CCCCNC(=O)c1ccnc2ccccc12	214 to 215
COC(=O)c1cc(I)c[nH]1	77 to 78
CCOC(=O)c1ncn2c1CN(C)C(=O)c1cc([N+](=O)[O-])ccc1-2	197 to 199
CCCCn1c(=O)c2c(NC)n[nH]c2n(Cc2ccc(OC)cc2)c1=O	292 to 294
COC(=O)c1c(C)cc(O)c(Cl)c1O	122 to 125
CSc1ccc(-c2coc3ccc(-c4nnc(C)o4)cc23)cc1	173 to 174
COCCn1cc(C(=O)NCc2ccc(Cl)cc2)c(=O)c2cc(CN(C)C[C@@H](O)c3ccccc3)sc21	105 to 106
c1cc(OCC2CO2)c2nsnc2c1 (centres undefined)	65 to 67
C#Cc1[nH]c2cccc3c2c1CC1C3CC(NC(=O)N(CC)CC)CN1C (centres undefined)	192
C=CCC1(C(C)(C)C(=O)O)C(=O)NC(=O)NC1=O	202 to 203
COc1ccc(C2(C#Cc3ccncc3)CCC(=O)CC2)cc1OC1CCCC1	88 to 89
O=c1ssc(-c2cnccn2)c1CBr	119
COc1ccc(-c2nc3cc4nc[nH]c(=O)c4cc3[nH]2)cc1	> 300
CCOCc1nc2c(N)nc(C)c(C)c2n1CCCCS(=O)(=O)NC	194 to 196
O=C1c2ccccc2C(=O)C1(O)c1ccccc1O	155 to 159
CS(=O)(=O)NC1Cc2ccc(C(=O)CCCCCl)cc2C1 (centres undefined)	71 to 72
Cc1ccc(-c2ccc3ccccc3c2)n1CC[C@H]1C[C@H](O)CC(=O)O1 (relative stereo)	45 to 50
COc1cc(OCc2ccccn2)ccc1/C=C/c1cc(/C=C/c2cc3ccccc3s2)n[nH]1	231 to 232
N#CN1CCC2(CC1)CN(c1ccc(Cl)cc1)c1ccccc12	178 to 180

SMILES	melting point [°C]
C[Si](C)(C)NC(=O)CC(=O)N[Si](C)(C)C	72 to 76
COc1cc(O)c(C=O)cc1Br	63 to 64
Cc1oc(-c2ccc(C(F)(F)F)cc2)nc1-c1ccc(Br)cc1	82.8
CCOC(=O)C1=C(C)NC2=C(C(=O)CCC2)C1c1nccn1C (centres undefined)	271 to 272
CC(Cl)(Cl)C(=O)N1CCCC1C(=O)O (centres undefined)	61 to 62
CCSC(F)(F)C(O)(Cn1cncn1)c1ccc(F)cc1F (centres undefined)	109 to 110
CNc1nc2ncnn2c(NC2CCCC2)c1-c1ccccc1	158 to 160
Cc1nc(Sc2cc(C(F)(F)F)ccn2)sc1CC(=O)O	122 to 123
O=c1[nH]cnc2sc(Br)cc12	304
CN1c2nnnn2-c2ccc(C(O)(c3ccc(Cl)cc3)c3cncn3C)cc2C1c1cccc(Cl)c1 (centres undefined)	235
O=[N+]([O-])c1cccc2c1S(=O)(=O)C=C2	195 to 197
O=C1c2ccccc2C(=O)N1CCCCSc1ccncc1	106 to 108
CC(=O)OCC1CC(n2c(Br)nc3cc(Cl)c(Cl)cc32)C(OC(C)=O)C1OC(C)=O (centres undefined)	156 to 159
Cc1cc(-n2nc(C(F)F)cc2-c2ccc(S(C)(=O)=O)cc2)ccc1F	154 to 155
COc1cc2c(c(Cl)c1Cl)C(=O)C(CCCCl)C2 (centres undefined)	130 to 132
CCn1c(N)c(-c2nccn2COCC[Si](C)(C)C)c(=O)c2ccc(-c3ccc(CC(=O)O)cc3)nc21	220
COc1ccc2ccc(C(=O)CNC(=O)Cc3ccc4ccccc4c3)cc2c1	169 to 173
O=C(O)C=Cc1ccc(Oc2nsnc(Cl)c2=O)cc1	> 280
COc1ccc(-c2cncc(OC3SCC(O)C(O)C3O)c2)c(C)c1 (centres undefined)	231
O=C(O)CNc1cc(Cl)ccc1[N+](=O)[O-]	147 to 148
CCN(Cc1ccccc1)C(=O)Cn1c2cccc(OCc3ccccc3)c2c2c(COC)c(C(=O)OC(C)C)ncc21	142 to 144

SMILES	melting point [°C]
CCCCCCCCCCCCCCCCOC(=O)Nc1ccc(NC(=O)NS(=O)(=O)c2ccc(OC)cc2)cc1	185
CN(C)c1ccc(N(c2ccccc2)C2(c3ccc(N(C)C)cc3)OC(=O)c3cc(N(C)C)ccc32)cc1 (centres undefined)	163 to 164
O=C1c2ccccc2S(=O)(=O)N1CCCOc1ccccc1	83 to 86
Nc1ccc(-c2noc3cc(F)ccc23)cc1[N+](=O)[O-]	239
C#CC1(OC(=O)c2ccccc2)C(COC(=O)c2ccc(Cl)cc2)OC(OC(=O)c2ccccc2)C1OC(=O)c1ccccc1 (centres undefined)	66 to 68
Cn1ncc(C(=O)N2CC(F)C2)c1C(=O)Nc1ccc2nc(-c3ccccc3)nn2c1	243
CC(C)CC(NC(=O)Cc1ccc(NC(=O)Nc2ccccn2)cc1)c1ncc(C(C)C(=O)O)s1 (centres undefined)	173 to 175
CCCc1c(SCCCOc2ccc(C(C)=O)c(OCCCC(=O)OCC)c2CCC)ccc(C(C)=O)c1O	65 to 66
CC(C)N(C(=O)COc1nnc(C(F)F)s1)c1cccc(Cl)c1	98
CCN(CC)CCCNc1ncc2cc(-c3c(Cl)cccc3Cl)c(N=CN(C)C)nc2n1	100 to 104
O=C(N1CCCN(C(=O)C(F)(F)F)CCN(C(=O)C(F)(F)F)CCCN(C(=O)C(F)(F)F)CC1)C(F)(F)F	217 to 218
COC(=O)C1=Cc2cc(-c3ccc(Cl)cc3)ccc2S(=O)(=O)CC1	168 to 170
CCOC(=O)CC1(c2ccccc2)CCN(C(c2ccccc2)(c2ccccc2)c2ccccc2)CC1	120
Cc1ncc(CO)cc1OC(=O)c1cccs1	59 to 61
CCON=C(CC)C1=C(O)CC(c2c(C)c3c(c(C)c2Cl)CC(C)(CC)C3)CC1=O (centres undefined)	56 to 58
Cc1nc(N)nc(N)c1-c1cccc(Cl)c1Cl	245 to 247
CC(Oc1ncn(-c2ccccc2)n1)C(=O)O (centres undefined)	140 to 142
CCCCCCCCOc1ccc(OCc2ccc(C(=O)OC3CCC(CCC)(CCC)OC3=O)cc2)cc1 (centres undefined)	65
O=C1N(Cc2ccc(Cl)cc2)c2ccccc2C1(O)c1ccoc1 (centres undefined)	128 to 130
CN(CC(=O)N[C@@H](CCC(N)=O)C(N)=O)C(=O)OCc1ccccc1	186 to 196

More lines, now with the values ahead:

melting point [°C]	SMILES
99.5 to 101	CCOC(=O)Nc1ccccc1N1CC2(CCN(C)CC2)c2ccccc21
123 to 125	CSC(Oc1cc(C)c(Br)c(C)c1)C(=O)NC(C)(C)C (centres undefined)
> 220	CSc1nn2c(O)cc(CN3CCN(C)CC3)nc2c1S(=O)(=O)c1ccccc1
156 to 158	CNS(=O)(=O)CCc1ccc2[nH]cc(C3CCN(C)CC3)c2c1
105 to 106	CC(C)(C)c1cc(-c2nn(CC(F)(F)C(F)F)c3ncccc23)cc(C(C)(C)C)c1O
100 to 101	O=C(O)CCC(O)c1ccc(-c2ccc(Cl)cc2)o1 (centres undefined)
198	CC(C)c1nc(Sc2ccc(CCC(=O)O)cc2)c(C(=O)O)n1Cc1cc2c(cc1Cl)OCO2
170 to 172	Oc1ccc([C@H]2OCCN3[C@@H](CCc4ccccc4)CC[C@H]23)cc1 (racemic)
232 to 234	O=c1[nH]c(CCN2CCN(c3ccccc3)CC2)c(-c2ccc(F)cc2)[nH]1
189 to 190	CC(C)n1c(CO)c(-c2ccc(F)cc2)c(-c2ccccc2)c1C(N)=O
129 to 132	CN1CCN(C2=Nc3ccccc3N3CCCc4cccc2c43)CC1
237	CCCCn1c(=O)n2cnnc2c2[nH]c(-c3cc(S(=O)(=O)N4CCN(C(C)(C)CO)CC4)ccc3OCCC)nc21
212 to 216	CN(C)c1ccc2c(c1)Sc1cc(N(C)C)ccc1N2C(=O)c1cc(C(C)(C)C)c(O)c(C(C)(C)C)c1
236 to 237	Cc1cc2c3c(ccc(N4CCCC4)c3c1)C(=O)N(O)C2=O
226 to 228	CCCc1c(OCc2ccc(C(=O)O)cc2[N+](=O)[O-])ccc(C(C)=O)c1O
86 to 88	CCC(CC)N(Cc1ccc(C(=O)O)cc1)S(=O)(=O)c1ccc(C)cc1
158 to 159	O=C(C=C1OC(=O)c2ccccc21)c1ccc(Cl)cc1
155 to 159	O=C1C(=O)c2ccccc2C2=C1SCC1(CCN(CC3CCCO3)CC1)O2 (centres undefined)
134 to 135	CC(=O)c1ccc2c(c1)-c1ccccc1-2

melting point [°C]	SMILES
166 to 168	O=C(O)c1ccc(NC(=O)C(CS)Cc2ccccc2)cc1 (centres undefined)
126 to 129	CCOC(=O)COc1ccc(C(=O)Nc2cccc(Cl)c2Cl)cc1
234	CC1CCN(C2C3=CC(OC3=O)C3C(CC4(C)OC4C2OC(=O)c2ccccc2)OC(=O)C3C)CC1 (centres undefined)
184 to 185	O=C(Nc1cccnn1)N1CCN(c2nccc(-c3ccc(F)cc3F)n2)CC1
115 to 116	CC(=O)OCCn1nc(-c2cc(C(C)(C)C)cc(C(C)(C)C)c2)c2cccnc21
108 to 110	O=C(CCCc1cccnc1)N1CCC(CC(c2ccc(F)cc2)c2ccc(F)cc2)CC1
132 to 134	CC(C)c1ccc(S(=O)(=O)n2c(COC(C)(C)C(=O)O)cc3cc(C(F)(F)F)ccc32)cc1
92 to 96	Cc1ccc(C(Cn2ccnc2)C(=O)c2ccc(Cl)cc2Cl)cc1 (centres undefined)
71 to 73	CC(CN1CCOCC1)C(=O)c1ccc(C(C)(C)C)cc1 (centres undefined)
236 to 238	Cn1nc(-c2cccc(N3Cc4cc(C(C)(C)C)ccc4C3=O)c2CO)cc(Nc2ccncn2)c1=O
128 to 129	CCC(C)(C)C(=O)c1ccc(C(=O)O)cc1
98	CCCCNC(=O)C(C)Oc1ccc(COc2ccc(Cl)cc2)cc1 (centres undefined)
159 to 162	Cc1nc2c(N)nc3c(c2n1CCCCS(=O)(=O)c1ccc(F)cc1)CCCC3
83.5 to 84	CN(C)C=CC(=O)c1ccc(F)cc1
87 to 90	CC(C)(C)OC(=O)n1nnc(-c2ccccc2)c1I
139 to 141	CCc1cc(C)cc(CC)c1C1C(=O)CC2(CCOCC2)CC1=O
233 to 235	CCc1nc2c(N)nc3cccnc3c2n1CC1(O)CCN(C(=O)OC(C)(C)C)CC1
165 to 166	Cc1c(/C=N/OCc2ccc(C(=O)O)c(Br)c2)c2ccccc2n1C

— a melting point compilation (Tetko et al.; mined from patent text by program, amines drawn as free bases though some values may be those of a salt)
